# Measurements taken from patent publication US5438052A, “Cephalosporin derivatives” (Hoffmann-La Roche Inc., priority 1991, dated 1995).
# Read-outs that look alike come from different tables or passages of the source.
# Tests used:
# [1] = tested on: C. freundii 902; test: Minimum inhibitory concentration in vitro, agar dilution method; format: cell-based; settings: Citrobacter freundii
# Description: (§1) 1. Minimum Inhibitory Concentration in vitro
# (§2) The activities ascertained, minimum inhibitory concentration (MIC) in μg/ml, are compiled in Table 1 hereinafter: […]
# [2] = tested on: E. aerogenes CF153; test: as above; format: cell-based; settings: Klebsiella aerogenes
# Description: as §1, §2
# [3] = tested on: E. cloacae 908R; test: as above; format: cell-based; settings: Enterobacter cloacae
# Description: as §1, §2
# [4] = tested on: E. cloacae 908SSi; test: as above; format: cell-based; settings: Enterobacter cloacae
# Description: as §1, §2
# [5] = tested on: E. cloacae P99; test: as above; format: cell-based; settings: Enterobacter cloacae
# Description: as §1, §2
# [6] = tested on: E. coli 25922; test: as above; format: cell-based; settings: Escherichia coli
# Description: as §1, §2
# [7] = tested on: K. oxytoca 1082; test: as above; format: cell-based; settings: Klebsiella oxytoca
# Description: as §1, §2
# [8] = tested on: K. pneumoniae 418; test: as above; format: cell-based; settings: Klebsiella pneumoniae
# Description: as §1, §2
# [9] = tested on: P. aeruginosa 27853; test: as above; format: cell-based; settings: Pseudomonas aeruginosa
# Description: as §1, §2
# [10] = tested on: P. aeruginosa 799/61; test: as above; format: cell-based; settings: Pseudomonas aeruginosa
# Description: as §1, §2
# [11] = tested on: P. aeruginosa 799/WT; test: as above; format: cell-based; settings: Pseudomonas aeruginosa
# Description: as §1, §2
# [12] = tested on: P. aeruginosa BA; test: as above; format: cell-based; settings: Pseudomonas aeruginosa
# Description: as §1, §2
# [13] = tested on: P. aeruginosa MK1184; test: as above; format: cell-based; settings: Pseudomonas aeruginosa
# Description: as §1, §2
# [14] = tested on: P. mirabilis 2117; test: as above; format: cell-based; settings: Proteus mirabilis
# Description: as §1, §2
# [15] = tested on: P. vulgaris 1028; test: as above; format: cell-based; settings: Proteus vulgaris
# Description: as §1, §2
# [16] = tested on: S. aureus 6538; test: as above; format: cell-based; settings: Staphylococcus aureus
# Description: as §1, §2
# [17] = tested on: S. marcescens 69438; test: as above; format: cell-based; settings: Serratia marcescens
# Description: as §1, §2
# [18] = tested on: S. pyogenes 15; test: as above; format: cell-based; settings: Streptococcus pyogenes
# Description: as §1, §2
# [19] = tested on: E. coli 25922; test: Experimental systemic septicaemia in the mouse; format: in vivo; settings: 96 h
# Protocol: (§3) 2. Experimental systemic septicaemia in the mouse
# (§4) An experimental systemic septicaemia was produced in albino mice weighing 16-20 g by intraperitoneally injecting into the experimental animals a sample of a dilute culture of the test organism which had been grown overnight. The sample administered is calculated such that the dosage administered is about 5-100 times greater than the dosage which is required to kill 50% of untreated experimental animals within 48 hours. The bacteria were injected as a suspension in the culture broth. Groups of 5 experimental animals each were used not only for the control, but also for the treatment for each dosage tested. The products in accordance with the invention were administered subcutaneously as a suspension in Tween 80 (2%), whereby the concentrations were chosen such that each experimental animal received 500 μl per administration. The respective concentrations were administered twice, namely 1 and 3 hours after the infection (in the case of P. aeruginosa three times, namely 1, 3 and 5 hours after the infection). The ED50 is that dosage which protects 50% of the experimental animals and was calculated by means of the Probit method on the basis of the survial rate after 4 days following the infection. The ED50 values in mg/kg s.c. (subcutaneous) for representatives of the class of substance in accordance with the invention are given in Table 2 hereinafter.
# [20] = tested on: Pseudomonas aeruginosa BA; test: Experimental systemic septicaemia in the mouse; format: in vivo; settings: sc, 96 h
# Protocol: as §3, §4
# [21] = C. freundii 902, agar dilution, read-out: MIC
# [22] = E. aerogenes CF153, agar dilution, read-out: MIC
# [23] = E. cloacae 908R, agar dilution, read-out: MIC
# [24] = E. cloacae 908SSi, agar dilution, read-out: MIC
# [25] = E. coli 25922, agar dilution, read-out: MIC
# [26] = K. oxytoca 1082, agar dilution, read-out: MIC
# [27] = K. pneumoniae 418, agar dilution, read-out: MIC
# [28] = P. aeruginosa 27853, agar dilution, read-out: MIC
# [29] = P. aeruginosa 799/61, agar dilution, read-out: MIC
# [30] = P. aeruginosa 799/WT, agar dilution, read-out: MIC
# [31] = P. aeruginosa BA, agar dilution, read-out: MIC
# [32] = P. aeruginosa MK1184, agar dilution, read-out: MIC
# [33] = P. mirabilis 2117, agar dilution, read-out: MIC
# [34] = P. vulgaris 1028, agar dilution, read-out: MIC
# [35] = S. aureus 6538, agar dilution, read-out: MIC
# [36] = S. marcescens 69438, agar dilution, read-out: MIC
# [37] = S. pyogenes 15, agar dilution, read-out: MIC
# [38] = Escherichia coli, sc, E. coli 25922, albino mice, s.c. 1 and 3 hours after infection, survival after 4 days, read-out: ED50
SMILES,"MIC [1, 21] [µg/mL]","MIC [2, 22] [µg/mL]","MIC [3, 23] [µg/mL]","MIC [4, 24] [µg/mL]",MIC [5] [µg/mL],"MIC [6, 25] [µg/mL]","MIC [7, 26] [µg/mL]","MIC [8, 27] [µg/mL]","MIC [9, 28] [µg/mL]","MIC [10, 29] [µg/mL]","MIC [11, 30] [µg/mL]","MIC [12, 31] [µg/mL]","MIC [13, 32] [µg/mL]","MIC [14, 33] [µg/mL]","MIC [15, 34] [µg/mL]","MIC [16, 35] [µg/mL]","MIC [17, 36] [µg/mL]","MIC [18, 37] [µg/mL]","ED50 [19, 38] [mg/kg]",other results
"CC(C)(O/N=C(\C(=O)N[C@@H]1C(=O)N2C(C(=O)O)=C(CSc3nc(-c4ccccc4)ncc3-c3ccc(O)c(O)c3)CS[C@H]12)c1csc(N)n1)C(=O)NO [Example 17, (6R,7R)-7-[(Z)-2-(2-amino-4-thiazolyl)-2-[[1-(hydroxycarbamoyl)-1-methylethoxy]imino]acetamido]-3-[[[5-(3,4-dihydroxyphenyl)-2-phenyl-4-pyrimidinyl]thio]methyl]-8-oxo-5-thia-1-azabicyclo[4.2.0]oct-2-ene-2-carboxylic acid]",0.5,0.25,1,8,16,< 0.1,2,0.25,1,< 0.1,2,2,8,0.5,0.25,> 32,0.5,0.12,,
"CC(C)(O/N=C(\C(=O)N[C@@H]1C(=O)N2C(C(=O)O)=C(CSc3nc(-c4ccccc4)ncc3-c3ccc(O)c(O)c3)CS[C@H]12)c1csc(N)n1)C(=O)NNC(=O)c1ccc(O)c(O)c1 [Example 46, (6R,7R)-7-[(Z)-2-(2-amino-4-thiazolyl)-2-[[1-[3-(3,4-dihydroxybenzoyl)carbazoyl]-1-methylethoxy]imino]acetamido]-3-[[[5-(3,4-dihydroxyphenyl)-2-phenyl-4-pyrimidinyl]thio]methyl]-8-oxo-5-thia-1-azabicyclo[4.2.0]oct-2-ene-2-carboxylic acid]",0.5,0.25,1,16,16,0.12,2,0.25,0.25,< 0.1,0.25,0.5,2,0.25,0.5,> 32,4,4,< 0.5,
"Nc1nc(/C(=N/OCc2nc(=O)c(O)c[nH]2)C(=O)N[C@@H]2C(=O)N3C(C(=O)O)=C(CSc4nc(-c5ccccc5)ncc4-c4ccc(O)c(O)c4)CS[C@H]23)cs1 [Example 16, (6R,7R)-7-[(Z)-2-(2-amino-4-thiazolyl)-2-[[(1,4-dihydro-5-hydroxy-4-oxo-2-pyrimidinyl)methoxy]imino]acetamido]-3-[[[5-(3,4-dihydroxyphenyl)-2-phenyl-4-pyrimidinyl]thio]methyl]-8-oxo-5-thia-1-azabicyclo[4.2.0]oct-2-ene-2-carboxylic acid]",0.12,0.12,0.25,8,8,< 0.1,0.25,< 0.1,1,< 0.1,0.5,4,> 32,0.25,0.25,32,1,0.25,< 0.5,"ED50 ([20]; P. aeruginosa BA, albino mice, s.c. 1, 3 and 5 hours after infection, survival after 4 days, read-out: ED50): > 2 mg/kg"
"Cc1cc(SCC2=C(C(=O)[O-])N3C(=O)[C@@H](NC(=O)/C(=N\OCc4nc(=O)c(O)c[nH]4)c4csc(N)n4)[C@H]3SC2)n2nc(COC(=O)c3ccc(O)c(O)c3)nc2n1.[Na+] [Example 6, (6R,7R)-7-[(Z)-2-(2-amino-4-thiazolyl)-2-[[(1,4-dihydro-5-hydroxy-4-oxo-2-pyrimidinyl)methoxy]imino]acetamido]-3-[[[2-[[(3,4-dihydroxybenzoyl)oxy]methyl]-5-methyl-s-triazolo[1,5-a]pyrimidin-7-yl]thio]methyl]-8-oxo-5-thia-1-azabicyclo[4.2.0]oct-2-ene-2-carboxylic acid sodium salt (1:1)]",,,,,4,,,,,,,,,,,,,,,"MIC [1]; 902: < 0.1 µg/mL; MIC ([2]; CF153): < 0.1 µg/mL; MIC ([3]; 908R): 0.12 µg/mL; MIC ([4]; 908SSI): 4 µg/mL; MIC [6]; 25922: < 0.1 µg/mL; MIC [7]; 1082: 0.12 µg/mL; MIC [8]; 418: < 0.1 µg/mL; MIC [9]; 27853: < 0.1 µg/mL; MIC ([10]; 799/61): < 0.1 µg/mL; MIC ([11]; 799/WT): < 0.1 µg/mL; MIC [12]: < 0.1 µg/mL; MIC ([13]; MK1184): < 0.1 µg/mL; MIC [14]; 2117: 0.25 µg/mL; MIC [15]; 1028: < 0.1 µg/mL; MIC [16]; 6538: 16 µg/mL; MIC [17]; 69438: 0.12 µg/mL; MIC [18]; 15: 2 µg/mL; ED50 ([19]; Escherichia coli, 25922, sc): < 0.2 mg/kg; ED50 [20]: 0.3 mg/kg"
